In patent US20260022142A1, “MACROCYCLIC IMMUNOMODULATORS” (Bristol-Myers Squibb Company, priority 2022, published 2026):
Numbered stars: 1 amine (or outer) side, 2 acyl side, 3 side chain; on linkers, the order of the positions; unused ones are H or OH. Bridge positions count the residues as written; N and C are the ends. Square brackets hold non-standard residues; d marks the D form. Peptide text beside a SMILES is read from it. * marks the point of attachment. Bip = N[C@@H](Cc1ccc(-c2ccccc2)cc1)C(=O)O; Phe(3-Me) = Cc1cccc(C[C@H](N)C(=O)O)c1; γGlu = O=C(O)[C@H](CCC(=O)[*:2])N[*:1]; βAsp = O=C(O)[C@H](CC(=O)[*:2])N[*:1]; Cha = N[C@@H](CC1CCCCC1)C(=O)O; Cit = NC(=O)NCCC[C@H](N)C(=O)O; Carboxymethyl = O=C(O)C*; Orn = NCCC[C@H](N)C(=O)O; Aun = NCCCCCCCCCCC(=O)O; Dab = NCC[C@H](N)C(=O)O; Dap = NC[C@H](N)C(=O)O; AEEA = NCCOCCOCC(=O)O

Biological target: T1, PD-1/PD-L1 interaction (PE-labeled human PD-L1-Ig binding to Jurkat cell line over-expressing human PD-1) (Homo sapiens, UniProt Q15116)
T1 construct: expressed in transfected cells; host or cells: Jurkat
T1 sequence (Q15116 25-288): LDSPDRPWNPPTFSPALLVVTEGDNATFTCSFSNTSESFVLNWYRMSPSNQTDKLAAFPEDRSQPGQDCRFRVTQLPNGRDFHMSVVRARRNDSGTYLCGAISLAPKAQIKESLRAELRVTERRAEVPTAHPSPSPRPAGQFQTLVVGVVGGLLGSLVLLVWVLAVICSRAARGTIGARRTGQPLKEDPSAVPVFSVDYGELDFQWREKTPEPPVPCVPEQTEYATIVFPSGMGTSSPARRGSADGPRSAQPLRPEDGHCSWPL
Experiment: Jurkat-PD-1 Cell Binding High-Content Screening Assay (CBA)
Assay type: cell-based
Settings: Jurkat cell line over-expressing human PD-1; PE-labeled PD-L1-Ig 20 nM final; read-out: Jurkat hPD1-PDL1 IC50
Experimental: Example 2: Jurkat-PD-1 Cell Binding High-Content Screening Assay (CBA)
Phycoerythrin (PE) was covalently linked to the Ig epitope tag of human PD-L1-Ig and fluorescently-labeled PD-L1-Ig was used for binding studies with a Jurkat cell line over-expressing human PD-1 (Jurkat-PD-1). Briefly, 8×10^3 Jurkat-hPD-1 cells were seeded into 384 well plates in 20 μl of DMEM supplemented with 10% fetal calf serum. 100 nl of compound was added to cells followed by incubation at 37° C. for 2 h. Then, 5 μl of PE-labeled PD-L1-Ig (20 nM final), diluted in DMEM supplemented with 10% fetal calf serum. After 1 hour incubation, cells were fixed with 4% paraformaldehyde in dPBS containing 10 μg/ml Hoechst 33342 and then washed 3× in 100 μl dPBS. Data was collected and processed using a Cell Insight NXT High Content Imager and associated software.

| SMILES | IC50 [nM] |
| --- | --- |
| Cc1cccc(C[C@@H]2NC(=O)[C@H](CC(=O)O)NC(=O)[C@H](Cc3ccc(OCC(=O)O)cc3)NC(=O)[C@H](CN)NC(=O)CSC[C@@H](C(=O)N[C@@H](CCC(=O)NCCCCCCCCCCC(=O)O)C(=O)O)NC(=O)[C@H]([C@@H](C)O)NC(=O)[C@H](C(C)C)NC(=O)[C@H](CC3CCCCC3)NC(=O)[C@H](CCN)NC(=O)[C@@H](CC(C)C)NC(=O)[C@H](CCCN)NC(=O)[C@H](CCCNC(N)=O)NC(=O)[C@H](Cc3ccc(-c4ccccc4)cc3)NC(=O)[C@H](C(C)C)NC2=O)c1 [Compound 1024] ({CH2CO}-[Dap]Y(Carboxymethyl)D[Phe(3-Me)]V[Bip][Cit][Orn][dL][Dab][Cha]VTC[γGlu][Aun]-OH; thioether N-14) | 6.6 |
| Cc1cccc(C[C@@H]2NC(=O)[C@H](CC(=O)O)NC(=O)[C@H](Cc3ccc(OCC(=O)O)cc3)NC(=O)[C@H](CN)NC(=O)CSC[C@@H](C(=O)N[C@@H](CC(=O)NCCCCCCCCCCC(=O)O)C(=O)O)NC(=O)[C@H]([C@@H](C)O)NC(=O)[C@H](C(C)C)NC(=O)[C@H](CC3CCCCC3)NC(=O)[C@H](CCN)NC(=O)[C@@H](CC(C)C)NC(=O)[C@H](CCCN)NC(=O)[C@H](CCCNC(N)=O)NC(=O)[C@H](Cc3ccc(-c4ccccc4)cc3)NC(=O)[C@H](C(C)C)NC2=O)c1 [Compound 1025] ({CH2CO}-[Dap]Y(Carboxymethyl)D[Phe(3-Me)]V[Bip][Cit][Orn][dL][Dab][Cha]VTC[βAsp][Aun]-OH; thioether N-14) | 10.8 |
| Cc1cccc(C[C@@H]2NC(=O)[C@H](CC(=O)O)NC(=O)[C@H](Cc3ccc(OCC(=O)O)cc3)NC(=O)[C@H](CN)NC(=O)CSC[C@@H](C(=O)N[C@@H](CC(=O)O)C(=O)NCCCCCCCCCCC(=O)O)NC(=O)[C@H]([C@@H](C)O)NC(=O)[C@H](C(C)C)NC(=O)[C@H](CC3CCCCC3)NC(=O)[C@H](CCN)NC(=O)[C@@H](CC(C)C)NC(=O)[C@H](CCCN)NC(=O)[C@H](CCCNC(N)=O)NC(=O)[C@H](Cc3ccc(-c4ccccc4)cc3)NC(=O)[C@H](C(C)C)NC2=O)c1 [Compound 1026] ({CH2CO}-[Dap]Y(Carboxymethyl)D[Phe(3-Me)]V[Bip][Cit][Orn][dL][Dab][Cha]VTCD[Aun]-OH; thioether N-14) | 8.7 |
| Cc1cccc(C[C@@H]2NC(=O)[C@H](CC(=O)O)NC(=O)[C@H](Cc3ccc(OCC(=O)O)cc3)NC(=O)[C@H](CN)NC(=O)CSC[C@@H](C(=O)N[C@@H](CCC(=O)O)C(=O)NCCCCCCCCCCC(=O)O)NC(=O)[C@H]([C@@H](C)O)NC(=O)[C@H](C(C)C)NC(=O)[C@H](CC3CCCCC3)NC(=O)[C@H](CCN)NC(=O)[C@@H](CC(C)C)NC(=O)[C@H](CCCN)NC(=O)[C@H](CCCNC(N)=O)NC(=O)[C@H](Cc3ccc(-c4ccccc4)cc3)NC(=O)[C@H](C(C)C)NC2=O)c1 [Compound 1027] ({CH2CO}-[Dap]Y(Carboxymethyl)D[Phe(3-Me)]V[Bip][Cit][Orn][dL][Dab][Cha]VTCE[Aun]-OH; thioether N-14) | 17.1 |
| Cc1cccc(C[C@@H]2NC(=O)[C@H](CC(=O)O)NC(=O)[C@H](Cc3ccc(OCC(=O)O)cc3)NC(=O)[C@H](CN)NC(=O)CSC[C@@H](C(=O)N[C@@H](C)C(=O)NCCOCCOCC(=O)NCCCCCCCCCCC(=O)O)NC(=O)[C@H]([C@@H](C)O)NC(=O)[C@H](C(C)C)NC(=O)[C@H](CC3CCCCC3)NC(=O)[C@H](CCN)NC(=O)[C@@H](CC(C)C)NC(=O)[C@H](CCCN)NC(=O)[C@H](CCCNC(N)=O)NC(=O)[C@H](Cc3ccc(-c4ccccc4)cc3)NC(=O)[C@H](C(C)C)NC2=O)c1 [Compound 1029] ({CH2CO}-[Dap]Y(Carboxymethyl)D[Phe(3-Me)]V[Bip][Cit][Orn][dL][Dab][Cha]VTCA[AEEA][Aun]-OH; thioether N-14) | 7.4 |
| Cc1cccc(C[C@@H]2NC(=O)[C@H](CC(=O)O)NC(=O)[C@H](Cc3ccc(OCC(=O)O)cc3)NC(=O)[C@H](CN)NC(=O)CSC[C@@H](C(=O)NCCOCCOCC(=O)N[C@@H](CCC(=O)NCCCCCCCCCCC(=O)O)C(=O)O)NC(=O)[C@H]([C@@H](C)O)NC(=O)[C@H](C(C)C)NC(=O)[C@H](CC3CCCCC3)NC(=O)[C@H](CCN)NC(=O)[C@@H](CC(C)C)NC(=O)[C@H](CCCN)NC(=O)[C@H](CCCNC(N)=O)NC(=O)[C@H](Cc3ccc(-c4ccccc4)cc3)NC(=O)[C@H](C(C)C)NC2=O)c1 [Compound 1030] ({CH2CO}-[Dap]Y(Carboxymethyl)D[Phe(3-Me)]V[Bip][Cit][Orn][dL][Dab][Cha]VTC[AEEA][γGlu][Aun]-OH; thioether N-14) | 4.3 |
| Cc1cccc(C[C@@H]2NC(=O)[C@H](CC(=O)O)NC(=O)[C@H](Cc3ccc(OCC(=O)O)cc3)NC(=O)[C@H](CN)NC(=O)CSC[C@@H](C(=O)NCCOCCOCC(=O)N[C@@H](CC(=O)NCCCCCCCCCCC(=O)O)C(=O)O)NC(=O)[C@H]([C@@H](C)O)NC(=O)[C@H](C(C)C)NC(=O)[C@H](CC3CCCCC3)NC(=O)[C@H](CCN)NC(=O)[C@@H](CC(C)C)NC(=O)[C@H](CCCN)NC(=O)[C@H](CCCNC(N)=O)NC(=O)[C@H](Cc3ccc(-c4ccccc4)cc3)NC(=O)[C@H](C(C)C)NC2=O)c1 [Compound 1031] ({CH2CO}-[Dap]Y(Carboxymethyl)D[Phe(3-Me)]V[Bip][Cit][Orn][dL][Dab][Cha]VTC[AEEA][βAsp][Aun]-OH; thioether N-14) | 6.8 |
| Cc1cccc(C[C@@H]2NC(=O)[C@H](CC(=O)O)NC(=O)[C@H](Cc3ccc(OCC(=O)O)cc3)NC(=O)[C@H](CN)NC(=O)CSC[C@@H](C(=O)NCCOCCOCC(=O)N[C@@H](CC(=O)O)C(=O)NCCCCCCCCCCC(=O)O)NC(=O)[C@H]([C@@H](C)O)NC(=O)[C@H](C(C)C)NC(=O)[C@H](CC3CCCCC3)NC(=O)[C@H](CCN)NC(=O)[C@@H](CC(C)C)NC(=O)[C@H](CCCN)NC(=O)[C@H](CCCNC(N)=O)NC(=O)[C@H](Cc3ccc(-c4ccccc4)cc3)NC(=O)[C@H](C(C)C)NC2=O)c1 [Compound 1032] ({CH2CO}-[Dap]Y(Carboxymethyl)D[Phe(3-Me)]V[Bip][Cit][Orn][dL][Dab][Cha]VTC[AEEA]D[Aun]-OH; thioether N-14) | 6.1 |
| Cc1cccc(C[C@@H]2NC(=O)[C@H](CC(=O)O)NC(=O)[C@H](Cc3ccc(OCC(=O)O)cc3)NC(=O)[C@H](CN)NC(=O)CSC[C@@H](C(=O)NCCOCCOCC(=O)N[C@@H](CCC(=O)O)C(=O)NCCCCCCCCCCC(=O)O)NC(=O)[C@H]([C@@H](C)O)NC(=O)[C@H](C(C)C)NC(=O)[C@H](CC3CCCCC3)NC(=O)[C@H](CCN)NC(=O)[C@@H](CC(C)C)NC(=O)[C@H](CCCN)NC(=O)[C@H](CCCNC(N)=O)NC(=O)[C@H](Cc3ccc(-c4ccccc4)cc3)NC(=O)[C@H](C(C)C)NC2=O)c1 [Compound 1033] ({CH2CO}-[Dap]Y(Carboxymethyl)D[Phe(3-Me)]V[Bip][Cit][Orn][dL][Dab][Cha]VTC[AEEA]E[Aun]-OH; thioether N-14) | 8.7 |
| Cc1cccc(C[C@@H]2NC(=O)[C@H](CC(=O)O)NC(=O)[C@H](Cc3ccc(OCC(=O)O)cc3)NC(=O)[C@H](CN)NC(=O)CSC[C@@H](C(=O)N[C@@H](CCC(=O)NCCOCCOCC(=O)NCCCCCCCCCCC(=O)O)C(=O)O)NC(=O)[C@H]([C@@H](C)O)NC(=O)[C@H](C(C)C)NC(=O)[C@H](CC3CCCCC3)NC(=O)[C@H](CCN)NC(=O)[C@@H](CC(C)C)NC(=O)[C@H](CCCN)NC(=O)[C@H](CCCNC(N)=O)NC(=O)[C@H](Cc3ccc(-c4ccccc4)cc3)NC(=O)[C@H](C(C)C)NC2=O)c1 [Compound 1034] ({CH2CO}-[Dap]Y(Carboxymethyl)D[Phe(3-Me)]V[Bip][Cit][Orn][dL][Dab][Cha]VTC[γGlu][AEEA][Aun]-OH; thioether N-14) | 6.6 |
| Cc1cccc(C[C@@H]2NC(=O)[C@H](CC(=O)O)NC(=O)[C@H](Cc3ccc(OCC(=O)O)cc3)NC(=O)[C@H](CN)NC(=O)CSC[C@@H](C(=O)N[C@@H](CC(=O)NCCOCCOCC(=O)NCCCCCCCCCCC(=O)O)C(=O)O)NC(=O)[C@H]([C@@H](C)O)NC(=O)[C@H](C(C)C)NC(=O)[C@H](CC3CCCCC3)NC(=O)[C@H](CCN)NC(=O)[C@@H](CC(C)C)NC(=O)[C@H](CCCN)NC(=O)[C@H](CCCNC(N)=O)NC(=O)[C@H](Cc3ccc(-c4ccccc4)cc3)NC(=O)[C@H](C(C)C)NC2=O)c1 [Compound 1035] ({CH2CO}-[Dap]Y(Carboxymethyl)D[Phe(3-Me)]V[Bip][Cit][Orn][dL][Dab][Cha]VTC[βAsp][AEEA][Aun]-OH; thioether N-14) | 9 |
| Cc1cccc(C[C@@H]2NC(=O)[C@H](CC(=O)O)NC(=O)[C@H](Cc3ccc(OCC(=O)O)cc3)NC(=O)[C@H](CN)NC(=O)CSC[C@@H](C(=O)N[C@@H](CC(=O)O)C(=O)NCCOCCOCC(=O)NCCCCCCCCCCC(=O)O)NC(=O)[C@H]([C@@H](C)O)NC(=O)[C@H](C(C)C)NC(=O)[C@H](CC3CCCCC3)NC(=O)[C@H](CCN)NC(=O)[C@@H](CC(C)C)NC(=O)[C@H](CCCN)NC(=O)[C@H](CCCNC(N)=O)NC(=O)[C@H](Cc3ccc(-c4ccccc4)cc3)NC(=O)[C@H](C(C)C)NC2=O)c1 [Compound 1036] ({CH2CO}-[Dap]Y(Carboxymethyl)D[Phe(3-Me)]V[Bip][Cit][Orn][dL][Dab][Cha]VTCD[AEEA][Aun]-OH; thioether N-14) | 6.8 |
